Measurements from patent US7927850B2, “Composition containing trehalose synthase and methods of use thereof” (Academia Sinica, priority 2006, dated 2011).

B1: native PTTS: Picrophilus torridus trehalose synthase protein without the linker and hexahistidine tag (SEQ ID NO: 3) (protein, listed as Picrophilus torridus)
chain: MLDNNGLWYRDAVFYEVPVKSFYDSNNDGIGDFNGLTMKLDYLKKLGVDALWLLPFYKSPLKDDGYDISDYYSILPEYGTIDDFKNFIDTAHSMNIRVIADLVLNHVSDQHPWFIESRSSIDNPKRDWFIWSDTPEKFKEARIIFIDTEKSNWTYDPETKQYYFHRFYSSQPDLNYDNPDVRNEVKKVIRYWLDLGLDGFRADAVPYLFKRENTNCENLPETHNFFKEIRKMMDEDYPGTILLAEANQWPTETKAYFGNGDEFHMAFNFPLMPRIFIALARSDYYPIMDIIKQTLPIPDNCDWCIFLRNHDELTLEMVTDSERDIMYREYAKIPKMRLNLGIRRRLAPLADNDINTIELLNALIFSLPGTPIIYYGDEIGMGDNIYLGDRNGVRTPMQWSYDRNAGFSMADSEQLYSPVITNPNYHYESVNVEAELRLSSSLLNWMIKIIHVRKDYKELLGRGSIKFIEQGNKRVLSYIREYENQRMLCLFNLSRNPTYVELNLSDYIGLKPIEAITKAAFPRIKDDRYFITMTPRSFFWFNLIVPERDDSYDLIGED

Tested on: not listed separately
Assay: Enzyme assay: amount of trehalose produced from maltose by PTTS
Format: biochemical, Picrophilus torridus
Details: PTTS without His-tag
Protocol: (§1) The activity of PTTS was assayed by measuring the amount of trehalose produced from maltose. The standard reaction was performed by adding 1.5 μL purified enzyme into 50 μL reaction solution containing 50 mM sodium phosphate (pH 6.0) and 150 mM maltose and incubating in a 45° C. water bath for 25 min. The assay time was under the linear range of enzyme reaction. The reaction was terminated by heating the mixture in boiling water for 15 min. One unit of enzyme activity was defined as the amount of enzyme that catalyzes the formation of 1 μmol of trehalose per min. Kinetic analysis was performed under conditions of pH 6.0 and 45° C. for 5 min in 50 mM sodium phosphate buffer containing substrate (maltose, trehalose, or maltose plus a constant 10 mM of glucose) at various concentrations. The resulting data were analyzed offline with Origin 6.0 software (Microcal, Northampton, Mass.). All experiments were carried out in duplicate or triplicate.
(§2) The amount of trehalose, glucose, and maltose after each enzymatic reaction was measured using a high performance liquid chromatography (HPLC) (SFD 2100) system equipped with an RI detector (Schambeck S F D, RI 2000) at a flow rate of 0.9 mL/min. A carbohydrate analysis column (HYPERSIL-100 Amino, Thermo Hypersil-Keystone) equilibrated with 75% acetonitrile, 24% Milli-Q water, and 1% formic acid was used. The retention times of glucose, maltose, and trehalose were 8.0, 11.2, and 12.5 min, respectively.

Molecule | specific activity relative to the recombinant His-tag fusion PTTS
B1 | about 1.3 fold

Tested on: PTTS
Assay: Effects of metal ions and reagents on PTTS activity
Format: biochemical, Picrophilus torridus
Details: 1 mM metal ion or reagent, standard assay conditions
Protocol: as §1
Effects of Metal Ions and Reagents on PTTS Activity. The effects of metal ions and reagents were determined by examining enzyme activity in the presence of 1 mM and 10 mM metal ions or reagents under standard assay conditions (FIG. 8).

Molecule | inhibition of enzyme activity
[Ag+] [Ag^+] | inhibited strongly
[Al+3] [Al^3+] | inhibited strongly
[Cd+2] [Cd^2+] | moderately
[Cu+2] [Cu^2+] | moderately
[Hg+2] [Hg^2+] | inhibited strongly
[Pb+2] [Pb^2+] | moderately
CCCCCCCCCCCCOS(=O)(=O)[O-].[Na+] [SDS] | inhibited strongly
NC(CO)(CO)CO [Tris] | moderately

Tested on: recombinant PTTS
Assay: Substrate specificity of recombinant PTTS
Format: biochemical, Picrophilus torridus
Details: standard assay conditions
Protocol: as §1, §2
Substrate Specificity of Recombinant PTTS. […] It also acted on sucrose and catalyzed the formation of glucose, fructose, and trehalulose [α-D-glucopyranosyl-(1,1)-D-fructofuranose], however, the activity is quite low. In addition, it converted the α,β-1,1-trehalose to maltose, though only about 7% just as with the α,α-1,1-trehalose.

Molecule | activity of recombinant PTTS with the substance as substrate | conversion to maltose relative to α,α-1,1-trehalose
O=C(CO)[C@@H](O)[C@H](O)[C@H](O)CO [fructose] | No detectable activities | –
O=C[C@H](O)[C@@H](O)[C@@H](O)[C@H](O)CO [galactose] | No detectable activities | –
OC[C@H]1O[C@H](OC[C@H]2OC(O)(CO)[C@@H](O)[C@@H]2O)[C@H](O)[C@@H](O)[C@@H]1O (stereo partly shown) [isomaltulose] | No detectable activities | –
OC[C@H]1O[C@@H](O[C@H]2[C@H](O)[C@@H](O)C(O)O[C@@H]2CO)[C@H](O)[C@@H](O)[C@H]1O (stereo partly shown) [lactose] | No detectable activities | –
OC[C@H]1O[C@H](O[C@H]2[C@H](O)[C@@H](O)[C@@H](O[C@H]3[C@H](O)[C@@H](O)[C@@H](O[C@H]4[C@H](O)[C@@H](O)[C@@H](O[C@H]5[C@H](O)[C@@H](O)C(O)O[C@@H]5CO)O[C@@H]4CO)O[C@@H]3CO)O[C@@H]2CO)[C@H](O)[C@@H](O)[C@@H]1O (stereo partly shown) [maltopentose] | No detectable activities | –
OC[C@H]1O[C@H](O[C@H]2[C@H](O)[C@@H](O)[C@H](O)O[C@@H]2CO)[C@H](O)[C@@H](O)[C@@H]1O [maltose] | converted them to each other | –
OC[C@H]1O[C@H](O[C@H]2[C@H](O)[C@@H](O)[C@@H](O[C@H]3[C@H](O)[C@@H](O)[C@@H](O[C@H]4[C@H](O)[C@@H](O)C(O)O[C@@H]4CO)O[C@@H]3CO)O[C@@H]2CO)[C@H](O)[C@@H](O)[C@@H]1O (stereo partly shown) [maltotetraose] | No detectable activities | –
OC[C@@H](O)[C@@H](O)[C@H](O)[C@@H](O)CO [sorbitol] | No detectable activities | –
OC[C@H]1O[C@@](CO)(O[C@H]2O[C@H](CO)[C@@H](O)[C@H](O)[C@H]2O)[C@@H](O)[C@@H]1O [sucrose] | quite low | –
OC[C@H]1O[C@H](O[C@H]2O[C@H](CO)[C@@H](O)[C@H](O)[C@H]2O)[C@H](O)[C@@H](O)[C@@H]1O [trehalose, α-D-glucopyranosyl α-D-glucopyranoside] | converted them to each other | –
OC[C@H]1O[C@@H](O[C@H]2O[C@H](CO)[C@@H](O)[C@H](O)[C@H]2O)[C@H](O)[C@@H](O)[C@@H]1O [α,β-1,1-trehalose] | – | about 7%
OC[C@H]1O[C@@H](O[C@@H]2O[C@H](CO)[C@@H](O)[C@H](O)[C@H]2O)[C@H](O)[C@@H](O)[C@@H]1O [β,β-1,1-trehalose] | No detectable activities | –
maltotriose | No detectable activities | –
